According to patent publication US20150031628A1, “METHODS AND FORMULATIONS FOR CONVERTING INTRAVENOUS AND INJECTABLE DRUGS INTO ORAL DOSAGE FORMS” (ZOMANEX, LLC, priority 2007, published 2015):

Legend:
in vivo [1] = conditions: female, beagle, dog, plasma, po, 20 mg
Procedure: (§1) To these ends, pharmacokinetic studies were performed in five naïve, female beagle dogs with each drug dosed in a formulation system using a crossover design, with a one week wash out period between doses. […] Following a 16-hour fast, the animals were fed a small amount (approximately ¼ can) of Hill/s Science Diet A/D and thirty minutes later each animal was orally dosed with one of the formulations of the appropriate test article. Blood samples were drawn 0.5, 1.0, 1.5, 3.0, 4.5, 8.0, and 24 hours after dosing.
The liquid was then dosed to the animal with a syringe. Water was then added to the syringe and the washing was administered to the dog.
After dosing with each formulation, all the blood samples were collected in a sodium heparin anticoagulant tube, processed to plasma and frozen at −80° C. Plasma Paclitaxel concentration at each time point for each of the five dogs was determined by high throughput liquid chromatographic-tandem mass spectrometric quantification at Bioanalytical Systems (McMinnville, Oreg.). […] To quantitate the absorption changes, the area under the curve (AUC0→∞) was calculated for each formulation system and the results are shown in the Table below.

in vivo [2] = conditions: female, beagle, dog, plasma, po, 20 mg; remark: listed apart in the source
Procedure: as §1
Solid Preparation—Paclitaxel. Solid Paclitaxel (300 mg), soy sterols (300 mg) and lysolecithin (900 mg) were added to a 30 mL glass tube and chloroform (3.0 ml) was added. After the solids were dissolved with gentle heating in a 60° C. water bath, the solvent was removed under a stream of nitrogen. The mass was then pumped on under vacuum to remove residual solvent. Addition of water (15 mL) softened the solid mass and the mixture was then sonicated in an ice bath for two minutes on 40% power, followed by two minutes sonication on 50% power and then two minutes sonication on 60% power. […]
Absorption Experiment With Solid Formulations. After dosing with each formulation, all the blood samples were processed and analyzed as described for the liquid formulations.

CC(=O)O[C@H]1C(=O)[C@@]2(C)[C@H]([C@H](OC(=O)c3ccccc3)[C@]3(O)C[C@H](OC(=O)[C@H](O)[C@@H](NC(=O)c4ccccc4)c4ccccc4)C(C)=C1C3(C)C)[C@]1(OC(C)=O)CO[C@@H]1C[C@@H]2O [Unformulated Paclitaxel, Paclitaxel]
AUC(0-inf) (in vivo [1]): 0.0289 ± 0.0071 µg·h/mL | AUC(0-inf) (in vivo [2]): 0.0289 ± 0.0071 µg·h/mL
